The results in this text go back to ChEMBL document CHEMBL1142017, “Structure-activity relationships and sub-type selectivity in an oxabicyclic estrogen receptor alpha/beta agonist scaffold” (Bioorg Med Chem Lett, 2005).

One assay addresses T1, Estrogen receptor (Homo sapiens, UniProt P03372).
T1 sequence (P03372 whole entry): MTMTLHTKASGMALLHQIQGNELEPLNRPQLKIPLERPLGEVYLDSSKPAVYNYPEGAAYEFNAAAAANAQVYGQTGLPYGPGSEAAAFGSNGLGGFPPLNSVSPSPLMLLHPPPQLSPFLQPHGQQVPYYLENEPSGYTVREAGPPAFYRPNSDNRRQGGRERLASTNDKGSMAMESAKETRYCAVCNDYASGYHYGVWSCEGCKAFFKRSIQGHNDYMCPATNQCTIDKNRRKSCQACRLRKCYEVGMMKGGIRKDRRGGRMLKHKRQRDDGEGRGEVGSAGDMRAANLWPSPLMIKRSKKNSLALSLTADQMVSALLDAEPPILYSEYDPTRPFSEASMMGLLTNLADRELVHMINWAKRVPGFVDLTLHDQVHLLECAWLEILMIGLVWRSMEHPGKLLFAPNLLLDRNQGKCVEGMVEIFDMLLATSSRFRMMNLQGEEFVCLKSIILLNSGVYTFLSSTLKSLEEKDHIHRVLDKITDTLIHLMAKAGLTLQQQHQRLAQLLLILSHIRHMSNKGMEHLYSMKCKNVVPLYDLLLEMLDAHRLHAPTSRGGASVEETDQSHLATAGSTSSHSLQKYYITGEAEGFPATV

The target of assay [1] is T2, Estrogen receptor beta (Homo sapiens, UniProt Q92731).
T2 sequence (Q92731 whole entry): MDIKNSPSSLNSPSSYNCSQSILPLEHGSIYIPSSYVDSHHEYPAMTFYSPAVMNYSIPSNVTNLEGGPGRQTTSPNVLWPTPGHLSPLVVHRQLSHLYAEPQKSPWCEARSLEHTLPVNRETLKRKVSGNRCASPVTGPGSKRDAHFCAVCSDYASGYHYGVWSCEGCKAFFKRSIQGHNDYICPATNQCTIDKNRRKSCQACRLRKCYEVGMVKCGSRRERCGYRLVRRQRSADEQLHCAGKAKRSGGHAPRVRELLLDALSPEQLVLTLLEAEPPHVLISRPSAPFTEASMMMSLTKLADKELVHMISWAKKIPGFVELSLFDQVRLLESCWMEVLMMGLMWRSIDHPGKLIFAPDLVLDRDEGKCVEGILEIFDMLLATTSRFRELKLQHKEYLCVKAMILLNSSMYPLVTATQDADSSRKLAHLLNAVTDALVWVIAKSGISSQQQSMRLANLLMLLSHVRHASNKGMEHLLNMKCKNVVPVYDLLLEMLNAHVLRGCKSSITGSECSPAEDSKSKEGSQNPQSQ
Description: (§1) In vitro agonist activity for estrogen receptor beta expressed in COS-1 cells
In assay [2] the target is T2, Estrogen receptor beta. The settings on record: cos-1.
Description: as §1
Assay [3] deals with T3, Estrogen receptor (Rattus norvegicus) (UniProt P06211+Q62986). Description: Effect on uterine wet weight in ovariectomized female rats after 30 mg/kg oral gavage dose. The format is functional, organism-based. On the set-up: dose 30 mg/kg.
Assay [4] concerns the target T3, Estrogen receptor (Rattus norvegicus). The experiment in a line: Effect on uterine wet weight in ovariectomized female rats. The format is functional.

In the case of `CC1=CC[C@]2(O)C[C@H]1[C@H](c1ccc(O)cc1)OC2(C)C` (racemic), the EC50 at Estrogen receptor is 1.6 nM; on Estrogen receptor beta [1], 9.2 nM.

For the compound `CC1=CC[C@@]2(CO)CO[C@@H](c3ccc(O)cc3F)[C@@H]1C2` (stereo in doubt; (-)-30), the concentration for a half-maximal effect (EC50) on Estrogen receptor is 19 nM; on Estrogen receptor beta [1], 3.1 nM.

`CC1=CC(C)(C)[C@@]2(O)CO[C@@H](c3ccc(O)cc3Cl)[C@@H]1C2` (racemic): the figures for the EC50 on Estrogen receptor and at Estrogen receptor beta [1] were 21 nM and 25 nM, respectively. Consider `CC1=CC[C@@]2(O)CO[C@@H](c3ccc(O)cc3)[C@@H]1C2(C)C` (racemic), for which the concentration giving a half-maximal response (EC50) amounted to 59 nM at Estrogen receptor and 24 nM on Estrogen receptor beta [1]. The like results for `CC1=CC[C@@]2(CO)CO[C@@H](c3ccc(O)c(Br)c3)[C@@H]1C2` (racemic) were, in that order, 336 nM and 485 nM. Regarding `CC1=CC[C@@]2(CO)CO[C@@H](c3ccc(O)c(F)c3)[C@@H]1C2` (stereo in doubt; (-)-28), the values for the EC50 on Estrogen receptor and at Estrogen receptor beta [1] were 254 nM and 57 nM, respectively. `CC1=CC[C@@H]2C[C@H]1[C@H](c1ccc(O)c(C)c1)OC2(C)C` (stereo in doubt): the EC50 came to 218 nM on Estrogen receptor and 318 nM on Estrogen receptor beta [2]. As for `CC1=CC[C@@]2(CO)CO[C@@H](c3ccc(O)cc3Cl)[C@@H]1C2` (stereo in doubt; (-)-26) [listing 1 of 2 here], the EC50 amounted to 18 nM on Estrogen receptor and 6.1 nM on Estrogen receptor beta [1]. On to `CC1=CC[C@]2(O)C[C@H]1[C@H](c1ccc(O)cc1F)OC2(C)C` (racemic), for which the EC50 on Estrogen receptor was found to be 1.1 nM; at Estrogen receptor beta [1] it was 1.4 nM.

`CC1=CC[C@@]2(CO)CO[C@@H](c3ccc(O)c(F)c3)[C@@H]1C2` (stereo in doubt; (+)-27): the 50% effective concentration (EC50) on Estrogen receptor is 2.6 nM; at Estrogen receptor beta [1] it was 40 nM.

Turning to `CC1=CC[C@@]2(CO)CO[C@@H](c3ccc(O)cc3C)[C@@H]1C2` (racemic), the figures for the EC50 at Estrogen receptor and on Estrogen receptor beta [1] were 92 nM and 79 nM, respectively. For `CC1=CC[C@@]2(CO)CO[C@@H](c3ccc(O)c(C)c3)[C@@H]1C2` (racemic), the 50% effective concentration (EC50) at Estrogen receptor amounted to 137 nM; at Estrogen receptor beta [1] it was 305 nM.

For the compound `CC1=CC[C@@]2(CO)CO[C@@H](c3ccc(O)cc3F)[C@@H]1C2` (stereo in doubt; (+)-29), the EC50 at Estrogen receptor was determined as 21 nM; on Estrogen receptor beta [1], 180 nM.

In the case of `COc1cc([C@@H]2OC[C@]3(CO)CC=C(C)[C@H]2C3)ccc1O` (racemic), the figures for the EC50 at Estrogen receptor and on Estrogen receptor beta [1] were 1980 nM and 3050 nM, respectively. For `CC1=CC[C@@]2(CO)CO[C@@H](c3ccc(O)cc3Cl)[C@]1(C)C2` (racemic), the figures for the EC50 on Estrogen receptor and at Estrogen receptor beta [1] were 43 nM and 67 nM, respectively.

As for `CC1=CC[C@]2(O)C[C@H]1[C@H](c1ccc(O)c(F)c1)OC2(C)C` (racemic), the EC50 was found to be 0.6 nM on Estrogen receptor and 7.2 nM at Estrogen receptor beta [1]. As for `CC1=CC[C@@]2(CO)CO[C@@H](c3ccc(O)c(Cl)c3)[C@@H]1C2` (racemic), the EC50 on Estrogen receptor turned out to be 36 nM; on Estrogen receptor beta [1], 197 nM. Take `CC1=CC[C@@]2(CO)CO[C@@H](c3cc(C)c(O)c(C)c3)[C@@H]1C2` (racemic): the EC50 on Estrogen receptor worked out at 743 nM; on Estrogen receptor beta [1], 2830 nM. On to `C[C@]12CC[C@@H]3c4ccc(OS(=O)(=O)O)cc4CC[C@H]3[C@@H]1CCC2=O`, for which the ED50 in assay [3] was 0.16 mg/kg/day. As for `CC1=CC[C@@]2(CO)CO[C@@H](c3ccc(O)cc3F)[C@@H]1C2` (racemic), the figures for the EC50 at Estrogen receptor and on Estrogen receptor beta [1] were 39 nM and 10 nM, respectively. Turning to `CC1=CC[C@@]2(CO)CO[C@@H](c3ccc(O)cc3F)[C@]1(C)C2` (racemic), the EC50 at Estrogen receptor is 50 nM; on Estrogen receptor beta [1], 12 nM.

`CC1=CC[C@@]2(CO)CO[C@@H](c3ccc(O)cc3Cl)[C@@H]1C2` (stereo in doubt; (+)-25): the concentration giving a half-maximal response (EC50) is 138 nM at Estrogen receptor and 46 nM at Estrogen receptor beta [1]. In the case of `CC1=CC[C@@]2(CO)CO[C@@H](c3ccc(O)cc3)[C@]1(C)C2` (racemic), the EC50 on Estrogen receptor stood at 203 nM; at Estrogen receptor beta [1] it was 39 nM. In the case of `CC1=CC[C@@]2(CO)CO[C@@H](c3ccc(O)c(F)c3)[C@@H]1C2` (racemic), the EC50 at Estrogen receptor stood at 4.6 nM; on Estrogen receptor beta [1] it was 25 nM. With `CC1=CC[C@@]2(CO)CO[C@@H](c3ccc(O)c(O)c3)[C@@H]1C2` (racemic), the EC50 came out at 2410 nM on Estrogen receptor and 3160 nM at Estrogen receptor beta [1]. As for `CC1=CC[C@@H]2C[C@H]1[C@H](c1ccc(O)cc1)OC2(C)C` (stereo in doubt; (+)-31), the EC50 at Estrogen receptor was 203 nM; at Estrogen receptor beta [1], 418 nM. `CC1=CC[C@@]2(CO)CO[C@@H](c3ccc(O)cc3Cl)[C@@H]1C2` (stereo in doubt; (-)-26) [listing 2 of 2 here] registered an ED50 in assay [4] of 3.44 mg/kg/day. Regarding `CC1=CC[C@@H]2C[C@H]1[C@H](c1ccc(O)c(C)c1)OC2(C)C` (stereo in doubt; (+)-32), the 50% effective concentration (EC50) at Estrogen receptor came out at 143 nM; at Estrogen receptor beta [1], 318 nM.

As for `CC1=CC(C)(C)[C@@]2(O)CO[C@@H](c3ccc(O)cc3)[C@@H]1C2` (racemic), the EC50 on Estrogen receptor turned out to be 141 nM; at Estrogen receptor beta [1], 183 nM. For the compound `CC1=CC[C@@H]2C[C@H]1[C@H](c1ccc(O)cc1)OC2(C)C` (stereo in doubt), the values for the EC50 at Estrogen receptor and at Estrogen receptor beta [1] were 211 nM and 195 nM, respectively. The like results for `CC1=CC[C@@]2(CO)CO[C@@H](c3ccc(O)c(F)c3)[C@]1(C)C2` (racemic) were, in that order, 68 nM and 6 nM. Consider `CC1=CC[C@@]2(CO)CO[C@@H](c3ccc(O)cc3O)[C@@H]1C2` (racemic), for which the EC50 is 173 nM on Estrogen receptor and 275 nM on Estrogen receptor beta [1].

With `CC1=CC[C@]2(O)C[C@H]1[C@H](c1ccc(O)cc1Cl)OC2(C)C` (racemic), the EC50 at Estrogen receptor is 1 nM; on Estrogen receptor beta [1], 6 nM. The like results for `CC1=CC[C@@]2(CO)CO[C@@H](c3ccc(O)cc3Cl)[C@@H]1C2` (racemic) were, in that order, 11 nM and 5.3 nM.

The EC50 is the concentration giving half of the maximal effect. The term ED50 denotes the midpoint of the dose-response relation. A high value points to weaker potency.
